For assay [1], the target named is T1, human calcitonin receptor (hCTR2) (Homo sapiens, UniProt P30988).
T1 construct: expressed in transfected cells
T1 sequence (P30988 25-474): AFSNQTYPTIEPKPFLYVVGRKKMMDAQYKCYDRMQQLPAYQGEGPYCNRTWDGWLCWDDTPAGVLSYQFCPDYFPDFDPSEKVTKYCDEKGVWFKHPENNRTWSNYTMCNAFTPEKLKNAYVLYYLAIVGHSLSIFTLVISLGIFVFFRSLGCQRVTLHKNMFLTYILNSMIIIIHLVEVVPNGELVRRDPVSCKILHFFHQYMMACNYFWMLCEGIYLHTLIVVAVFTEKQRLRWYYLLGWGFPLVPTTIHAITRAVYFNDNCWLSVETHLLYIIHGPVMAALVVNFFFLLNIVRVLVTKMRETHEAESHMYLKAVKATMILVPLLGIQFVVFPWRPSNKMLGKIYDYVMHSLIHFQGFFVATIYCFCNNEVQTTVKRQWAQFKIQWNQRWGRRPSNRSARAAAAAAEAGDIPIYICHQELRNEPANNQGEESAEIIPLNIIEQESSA
In words: hCTR2 cAMP assay (AlphaScreen) in COS7 cells. The note with it: cAMP induction, COS7 cells expressing hCTR2; Table 1; read-out: hCTR2 EC50. Type of assay: cell-based. The method, boiled down:
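Stable hCTR2 clone in RAMP-naïve COS7 cells stimulated 15 min at 37 °C with increasing peptide concentrations in Tyrode buffer pH 7.4 containing IBMX and 0.1% casein. cAMP in lysates measured by AlphaScreen; EC50 from 4-parameter logistic fit.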
A general note: Changes in cAMP serve as a functional read-out for many G protein-coupled receptors.

Assay [2] addresses T2, human amylin receptor 3 (hAMYR3), hCTR2 co-expressed with hRAMP3 (Homo sapiens, UniProt O60896+P30988).
T2 construct: expressed in transfected cells
T2 sequence (P30988 25-474): T1 sequence (P30988 25-474)
T2 sequence (O60896 24-148 partner): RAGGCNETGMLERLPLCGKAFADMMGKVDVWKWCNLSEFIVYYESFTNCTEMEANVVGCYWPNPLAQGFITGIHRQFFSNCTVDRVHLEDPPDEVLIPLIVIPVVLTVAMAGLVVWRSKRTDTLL
In words: hAMYR3 cAMP assay (AlphaScreen) in COS7 cells. The note with it: cAMP induction, COS7 cells expressing hAMYR3; Table 1; read-out: hAMYR3 EC50. It is filed as cell-based. From the text:
The cell line COS7, originating from African Green Monkey kidney fibroblast cells, was used for establishment of the stable cell lines described below. The COS7 cellular background was used due to it being RAMP naïve, and as such it provides the best available system for testing of the monomeric hCTR and different heterodimeric amylin receptor subtypes functionally generated by introduction of the individual RAMPs.
A cell line expressing the human amylin receptor 3 (hAMYR3) was generated in the COS7 cellular background as stable clones. In brief, hCTR2 (GI:4502547) and hRAMP3 (GI:118572586) were amplified by PCR using primers encoding terminal restriction sites for subcloning. The 5′-end primers additionally encoded a near Kozak consensus sequence to ensure efficient translation. The fidelity of the DNA encoding the receptor was confirmed by DNA sequencing. The PCR products encoding the receptor were subcloned into a proprietary tri-cistronic mammalian expression vector with RAMP3, hCTR2 and neomycin (G418) resistance marker. The mammalian expression vector encoding the receptor was transfected into COS7 cells by a standard liposome transfection method. 48 hours post-transfection, cells were seeded for limited dilution cloning and selected with 1 mg/ml G418 in the culture medium. After 3 weeks, surviving colonies of hAMY3R-expressing cells were picked, propagated and tested in the amylin efficacy assay as described in Example 3 below. The functional generation of the amylin receptor phenotype was verified in the efficacy assay by a left-shifted efficacy response to amylin relative to monomeric calcitonin receptor, and one hAMYR3-expressing clone was chosen for compound profiling.
In vitro activity of test peptides at the hCTR2 and hAMYR3 receptors was assessed by measuring the induction of cAMP following stimulation of the receptor using the AlphaScreen® cAMP Assay kit from Perkin-Elmer.
Briefly, COS7 cells expressing hCTR2 (see Example 2, above) were seeded at 30-40,000 cells per well in 96-well microtiter plates coated with 0.01% poly-L-lysine, and grown for 1 day in culture in 100 μl growth medium [DMEM, 10% FCS, Penicillin (100 IU/ml), Streptomycin (100 μg/ml)]. On the day of analysis, growth medium was removed and the cells were washed once with 200 μl Tyrode buffer [Tyrode's Salts (9.6 g/I), 10 mM HEPES, pH 7.4]. Cells were incubated in 100 μl Tyrode buffer containing increasing concentrations of test peptides, 100 µM IBMX and 0.1% casein for 15 min at 37° C. The reaction was stopped by carefully decanting off the compound/buffer medium and replacing it with lysis/detection buffer (80 μl 0.1% w/v BSA, 5 mM HEPES, 0.3% v/v Tween-20 in deionized water). After incubation at room temperature for 10 min., the cAMP content of the resulting cell lysate was estimated according to the AlphaScreen® cAMP Assay manufacturer's instructions. EC50 values were estimated by computer-aided curve fitting using the 4-parameter logistic (4PL) non-linear model.

*1 amine or outer side, *2 acyl side, *3 side chain or, on linkers, in order; H or OH if unused. Where a SMILES comes first, the peptide text is derived from it. Bridges are numbered along the chain shown (N, C = ends). [ ]: non-standard residue; d: D form. The star is where a group is joined. C20 diacid = O=C(O)CCCCCCCCCCCCCCCCCCC(=O)*; γGlu = O=C(O)[C@H](CCC(=O)[*:2])N[*:1]; Hyp = O=C(O)[C@@H]1C[C@@H](O)CN1; NMeI = CC[C@H](C)[C@H](NC)C(=O)O; Aad = N[C@@H](CCCC(=O)O)C(=O)O; Orn = NCCC[C@H](N)C(=O)O; Sar = CNCC(=O)O

Turning to `CC[C@H](C)[C@@H](C(=O)N[C@@H](CC(C)C)C(=O)N[C@@H](CO)C(=O)N[C@@H](CO)C(=O)N[C@H](C(=O)N[C@@H](CCC(=O)O)C(=O)N[C@H](C(=O)NCC(=O)N[C@@H](CO)C(=O)N[C@@H](Cc1ccccc1)C(=O)N[C@H](C(=O)N1C[C@H](O)C[C@H]1C(N)=O)[C@@H](C)O)C(C)C)[C@@H](C)O)N(C)C(=O)[C@H](C)NC(=O)CN(C)C(=O)[C@H](Cc1ccccc1)NC(=O)[C@H](CO)NC(=O)[C@H](CO)NC(=O)[C@H](CCCNC(=N)N)NC(=O)[C@H](CC(N)=O)NC(=O)[C@H](CC(C)C)NC(=O)[C@H](Cc1ccccc1)NC(=O)[C@H](Cc1c[nH]cn1)NC(=O)[C@H](C)NC(=O)[C@H](CC(C)C)NC(=O)[C@H](CCCNC(=N)N)NC(=O)[C@H](CCC(=O)O)NC(=O)[C@@H](NC(=O)[C@H](C)NC(=O)[C@@H]1CSSC[C@H](NC(=O)[C@H](CCCNC(=N)N)NC(=O)CC[C@H](NC(=O)CCCCCCCCCCCCCCCCCCC(=O)O)C(=O)O)C(=O)NCC(=O)N[C@@H]([C@@H](C)O)C(=O)N[C@@H](C)C(=O)N[C@@H]([C@@H](C)O)C(=O)N1)[C@@H](C)O` [Compound 33, [19CD]-isoGlu-R-C( )-GTAT-C( )-ATERLAHFLNRSSF-Gly(Me)-A-Ile(Me)-LSSTEVGSFT-Hyp-NH2] ({C20 diacid-γGlu}-RCGTATCATERLAHFLNRSSF[Sar]A[NMeI]LSSTEVGSFT[Hyp]-NH2; disulfide 2-7), the results for the EC50 in assay [1] and in assay [2] were 110 pM and 150 pM, respectively.
Turning to `CC[C@H](C)[C@@H](C(=O)N[C@@H](CC(C)C)C(=O)N[C@@H](CO)C(=O)N[C@@H](CO)C(=O)N[C@H](C(=O)N[C@@H](CCC(=O)O)C(=O)N[C@H](C(=O)NCC(=O)N[C@@H](CO)C(=O)N[C@@H](CO)C(=O)N[C@H](C(=O)N1CCC[C@H]1C(N)=O)[C@@H](C)O)C(C)C)[C@@H](C)O)N(C)C(=O)[C@H](C)NC(=O)CN(C)C(=O)[C@H](Cc1ccccc1)NC(=O)[C@H](CO)NC(=O)[C@H](CO)NC(=O)[C@H](CCCNC(=N)N)NC(=O)[C@H](Cc1c[nH]cn1)NC(=O)[C@H](CC(C)C)NC(=O)[C@H](Cc1ccccc1)NC(=O)[C@H](Cc1c[nH]cn1)NC(=O)[C@H](C)NC(=O)[C@H](CC(C)C)NC(=O)[C@H](CCCNC(=N)N)NC(=O)[C@H](CCC(=O)O)NC(=O)[C@@H](NC(=O)[C@H](C)NC(=O)[C@@H]1CSSC[C@H](NC(=O)[C@H](CCCNC(=N)N)NC(=O)CC[C@H](NC(=O)CCCCCCCCCCCCCCCCCCC(=O)O)C(=O)O)C(=O)NCC(=O)N[C@@H]([C@@H](C)O)C(=O)N[C@@H](C)C(=O)N[C@@H]([C@@H](C)O)C(=O)N1)[C@@H](C)O` [Compound 37, [19CD]-isoGlu-R-C( )-GTAT-C( )-ATERLAHFLHRSSF-Gly(Me)-A-Ile(Me)-LSSTEVGSSTP-NH2] ({C20 diacid-γGlu}-RCGTATCATERLAHFLHRSSF[Sar]A[NMeI]LSSTEVGSSTP-NH2; disulfide 2-7), the EC50 (usually the midpoint of the concentration-response curve) in assay [1] turned out to be 40 pM; in assay [2], 70 pM.
In the case of `CC[C@H](C)[C@@H](C(=O)N[C@@H](CC(C)C)C(=O)N[C@@H](CO)C(=O)N[C@@H](CO)C(=O)N[C@H](C(=O)N[C@@H](CCC(=O)O)C(=O)N[C@H](C(=O)NCC(=O)N[C@@H](CO)C(=O)N[C@@H](Cc1ccccc1)C(=O)N[C@H](C(=O)N1CCC[C@H]1C(N)=O)[C@@H](C)O)C(C)C)[C@@H](C)O)N(C)C(=O)[C@H](C)NC(=O)CN(C)C(=O)[C@H](Cc1ccccc1)NC(=O)[C@H](CO)NC(=O)[C@H](CO)NC(=O)[C@H](CCCNC(=N)N)NC(=O)[C@H](CCC(N)=O)NC(=O)[C@H](CC(C)C)NC(=O)[C@H](Cc1ccccc1)NC(=O)[C@H](Cc1c[nH]cn1)NC(=O)[C@H](C)NC(=O)[C@H](CC(C)C)NC(=O)[C@H](CCCNC(=N)N)NC(=O)[C@H](CCC(=O)O)NC(=O)[C@@H](NC(=O)[C@H](C)NC(=O)[C@@H]1CSSC[C@H](NC(=O)[C@H](CCCNC(=N)N)NC(=O)CC[C@H](NC(=O)CCCCCCCCCCCCCCCCCCC(=O)O)C(=O)O)C(=O)NCC(=O)N[C@@H]([C@@H](C)O)C(=O)N[C@@H](C)C(=O)N[C@@H]([C@@H](C)O)C(=O)N1)[C@@H](C)O` [Compound 39, [19CD]-isoGlu-R-C( )-GTAT-C( )-ATERLAHFLQRSSF-Gly(Me)-A-Ile(Me)-LSSTEVGSFTP-NH2] ({C20 diacid-γGlu}-RCGTATCATERLAHFLQRSSF[Sar]A[NMeI]LSSTEVGSFTP-NH2; disulfide 2-7), the EC50 was found to be 160 pM in assay [1] and 220 pM in assay [2].
With `CC[C@H](C)[C@@H](C(=O)N[C@@H](CC(C)C)C(=O)N[C@@H](CO)C(=O)N[C@@H](CO)C(=O)N[C@H](C(=O)N[C@@H](CCC(=O)O)C(=O)N[C@H](C(=O)NCC(=O)N[C@@H](CO)C(=O)N[C@@H](Cc1ccccc1)C(=O)N[C@H](C(=O)N1CCC[C@H]1C(N)=O)[C@@H](C)O)C(C)C)[C@@H](C)O)N(C)C(=O)[C@H](C)NC(=O)CN(C)C(=O)[C@H](Cc1ccccc1)NC(=O)[C@H](CO)NC(=O)[C@H](CO)NC(=O)[C@H](CCCNC(=N)N)NC(=O)[C@H](CC(N)=O)NC(=O)[C@H](CC(C)C)NC(=O)[C@H](Cc1ccccc1)NC(=O)[C@H](Cc1c[nH]cn1)NC(=O)[C@H](C)NC(=O)[C@H](CC(C)C)NC(=O)[C@H](CCCNC(=N)N)NC(=O)[C@H](CCC(=O)O)NC(=O)[C@@H](NC(=O)[C@H](C)NC(=O)[C@@H]1CSSC[C@H](NC(=O)[C@H](CCCNC(=N)N)NC(=O)CC[C@H](NC(=O)CCCCCCCCCCCCCCCCCCC(=O)O)C(=O)O)C(=O)NCC(=O)N[C@@H]([C@@H](C)O)C(=O)N[C@@H](C)C(=O)N[C@@H]([C@@H](C)O)C(=O)N1)[C@@H](C)O` [Compound 40, [19CD]-isoGlu-R-C( )-GTAT-C( )-ATERLAHFLNRSSF-Gly(Me)-A-Ile(Me)-LSSTEVGSFTP-NH2] ({C20 diacid-γGlu}-RCGTATCATERLAHFLNRSSF[Sar]A[NMeI]LSSTEVGSFTP-NH2; disulfide 2-7), the EC50 was 120 pM in assay [1] and 190 pM in assay [2].
Turning to `CC[C@H](C)[C@@H](C(=O)N[C@@H](CC(C)C)C(=O)N[C@@H](CO)C(=O)N[C@@H](CO)C(=O)N[C@H](C(=O)N[C@@H](CCC(=O)O)C(=O)N[C@H](C(=O)NCC(=O)N[C@@H](CO)C(=O)N[C@@H](CCCN)C(=O)N[C@H](C(=O)N1C[C@H](O)C[C@H]1C(N)=O)[C@@H](C)O)C(C)C)[C@@H](C)O)N(C)C(=O)[C@H](C)NC(=O)CN(C)C(=O)[C@H](Cc1ccccc1)NC(=O)[C@H](CO)NC(=O)[C@H](CO)NC(=O)[C@H](CCCNC(=N)N)NC(=O)[C@@H](NC(=O)[C@H](CC(C)C)NC(=O)[C@H](Cc1ccccc1)NC(=O)[C@H](CCCC(=O)O)NC(=O)[C@H](C)NC(=O)[C@H](CC(C)C)NC(=O)[C@H](CCCNC(=N)N)NC(=O)[C@H](CCC(=O)O)NC(=O)[C@@H](NC(=O)[C@H](C)NC(=O)[C@@H]1CSSC[C@H](NC(=O)[C@H](CCCNC(=N)N)NC(=O)CC[C@H](NC(=O)CCCCCCCCCCCCCCCCCCC(=O)O)C(=O)O)C(=O)NCC(=O)N[C@@H]([C@@H](C)O)C(=O)N[C@@H](C)C(=O)N[C@@H]([C@@H](C)O)C(=O)N1)[C@@H](C)O)[C@@H](C)O` [Compound 44, [19CD]-isoGlu-R-C( )-GTAT-C( )-ATERLA-Aad-FLTRSSF-Gly(Me)-A-Ile(Me)-LSSTEVGS-Orn-T-Hyp-NH2] ({C20 diacid-γGlu}-RCGTATCATERLA[Aad]FLTRSSF[Sar]A[NMeI]LSSTEVGS[Orn]T[Hyp]-NH2; disulfide 2-7), the EC50 in assay [1] was 200 pM; in assay [2] it was 300 pM.

The values above are taken from patent US20210115104A1, “AMYLIN ANALOGUES” (Zealand Pharma A/S, priority 2015, published 2021).
